{"source": "paper PMC7898822", "about": "“RNA‐PROTACs: Degraders of RNA‐Binding Proteins” (Angewandte Chemie (International Ed. in English), 2020)", "key": {"Lin28_ZKD": {"target": "T1, Lin28_ZKD (Homo sapiens, UniProt Q9H9Z2)", "T1 construct": "construct encoding amino acids 124–186 of human Lin28; His6; made in house; host or cells: Escherichia coli BL21 (DE3) Codon+ (RIL)", "T1 sequence (Q9H9Z2 124-186)": "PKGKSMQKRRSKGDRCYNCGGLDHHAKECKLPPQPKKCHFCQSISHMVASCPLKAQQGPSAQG", "experiment": "Fluorescence polarization competition assay (displacement of let7FAM from Lin28_ZKD)", "assay_type": "binding", "settings": "competition FP, conjugate vs parent", "protocol": "Fluorescence Polarization Assay. Fluorescence polarization titration assay was carried out by titrating Lin28_ZKD protein into FAM-labeled PreE-let-7 at a 10 nM final concentration and buffer (10 mM HEPES, 150 mM NaCl, 10 µM ZiCl2, pH 7,4). The assay plate was briefly vortexed, and air bubbles were removed by spinning at 1000 rpm. The fluorescence anisotropy was measured on a Spectra Max Paradigm multimode plate reader (Molecular Devices). The fluorescence polarization competition […]\npreE-let-7. The concentration of Lin28_ ZKD is kept at 40 nM, a value in the range of the dissociation constant of Lin28_ZKD and preE-let-7 determined through fluorescence polarization titration assay, whereas preE-let-7 concentration is kept constant at 10 nM. FP competitive binding assays were performed on 384-well plates (#3575, Corning) with a total well volume of 10 µL.\nFluorescence polarization readings were transferred into Prism 7.0 (GraphPad). All fluorescence polarization assays were repeated at least three times and the anisotropy values fitted using GraphPad Prism software using 1:1 binding/inhibition model. […]"}, "K562 cells": {"tested_on": "K562 cells", "experiment": "Intracellular uptake of FAM-labelled oligonucleotides, fluorescence microscopy", "assay_type": "cell-based, human", "settings": "FAM-conjugated, 1 µM, 24 h"}, "myc-Lin28A": {"tested_on": "myc-Lin28A", "experiment": "Ubiquitination assay of myc-Lin28A in 22Rv1 cells", "assay_type": "cell-based", "settings": "HA-Ub co-transfected, 500 nM, 48 h, anti-HA western blot after cMyc IP", "protocol": "Next, we investigated the ability of ORN3P1 and ORN7P1 to mediate ubiquitination of Lin28 in cells, using a previously described protocol. ^[32] Cells from the prostate cancer cell line 22RV1, which express very low levels of Lin28, were co‐transfected with two plasmids expressing pCMV‐myc‐Lin28A and HA‐tagged polyubiquitin (HA‐Ub).\nAfter 48 h of incubation with ORN3P1 and ORN7P1, the tagged Lin28 (and the control QKI) was immunoprecipitated using an anti‐Myc antibody. The isolated protein was then analyzed by western blotting using the anti‐HA and anti‐c‐Myc antibodies. Consistent with other previously described PROTAC reagents,[ ^32 , ^33 ]\nThe protein extracts (12-17 µg) were run on a 4-20% SDS-PAGE and transferred on a nitrocellulose blotting membrane 0.22 µm (GE Healthcare) using the Trans-Blot transfer device (Biorad). Membranes were blocked with 5% milk and incubated with the primary antibody overnight at 4 °C. Membranes were washed with 0.05% PBS-T and reacted with the secondary antibody for 1 h in 5% milk. The proteins were detected using the anti-lin28a antibody (Cell Signaling technology, D9F5), anti-lin28b antibody (Cell Signaling technology, 4196S), anti-rbfox1 (NovusBio, NBP2-13169SS), at 1:1000 and anti-hrnp c antibody […]\n(Abcam, AB133607) at 1:10000 dilutions. […]\non a ChemiDoc MP imager (Biorad). The intensity of the signal was quantified using the ImageJ-Fiji software. […]"}, "Lin28A": {"tested_on": "Lin28A", "experiment": "Confocal microscopy, LIN28A level in K562 cells", "assay_type": "cell-based, human", "settings": "FAM labelled ORN3P1, 1 µM, 24 h"}, "Lin28B": {"tested_on": "Lin28B", "experiment": "Confocal microscopy, LIN28B level in K562 cells", "assay_type": "cell-based, human", "settings": "FAM labelled ORN3P1, 1 µM, 24 h"}}, "data": [{"compound": "CC[C@H](C)[C@H](NC(=O)[C@H](Cc1ccc(O)cc1)NC(=O)[C@@H]1C[C@@H](O)CN1C(=O)[C@H](C)NC(=O)[C@H](CC(C)C)NC(=O)CCCCCNC(=O)[C@@H](N)CSC1CC(=O)N(CCOP(=O)(S)OC[C@H]2O[C@@H](n3cnc4c(N)ncnc43)[C@H](OCCOC)[C@@H]2OP(=O)(S)OC[C@H]2O[C@@H](n3cnc4c(=O)[nH]c(N)nc43)[C@H](OCCOC)[C@@H]2OP(=O)(S)OC[C@H]2O[C@@H](n3cnc4c(=O)[nH]c(N)nc43)[C@H](OCCOC)[C@@H]2OP(=O)(S)OC[C@H]2O[C@@H](n3cnc4c(N)ncnc43)[C@H](OCCOC)[C@@H]2OP(=O)(S)OC[C@H]2O[C@@H](n3cnc4c(=O)[nH]c(N)nc43)[C@H](OCCOC)[C@@H]2OP(=O)(S)OC[C@H]2O[C@@H](n3cnc4c(N)ncnc43)[C@H](OCCOC)[C@@H]2OP(=O)(S)OC[C@H]2O[C@@H](n3cc(C)c(=O)[nH]c3=O)[C@H](OCCOC)[C@@H]2O)C1=O)C(=O)O", "note": "(some centres unmarked) [ORN3P1]", "values": [{"measurement": "competition for Lin28_ZKD relative to parent unconjugated oligonucleotides", "setting": "Lin28_ZKD", "value": "competed slightly more strongly"}, {"measurement": "intracellular localization", "setting": "K562 cells", "value": "present in the cytoplasm and nuclei of K562 cells"}, {"measurement": "ubiquitination of myc-Lin28A", "setting": "myc-Lin28A", "value": "showed a smear on the gel towards higher molecular weight"}, {"measurement": "LIN28A degradation by confocal microscopy", "setting": "Lin28A", "value": "LIN28A is degraded"}, {"measurement": "LIN28B by confocal microscopy", "setting": "Lin28B", "value": "relatively unaffected"}]}]}
